Reference: patent US7842690B2, “Cyclic hydroxylamine as psychoactive compounds” (BTG International Limited, priority 2003, dated 2010)
Where a name gives a salt, the structure may show the parent alone.

Columns and labels:
Assay type in all cases: in vivo
[1] = tested on: Male rats of the Wistar strain; assay: Despair test (forced swim); settings: 50 mg/kg IP, injections 24, 5 and 1 hour prior to test, 5-min test, mean ± S.E.M.
[2] = tested on: Male rats of the Wistar strain; assay: Reserpine-induced changes in open field behaviour; settings: reserpine 0.1 mg/kg SC daily for 14 days, acute 50 mg/kg IP 1 h prior to open field test, 5-min test, mean ± S.E.M.
Experimental: Rats treated with the compound of Example 1 were compared to either rats treated with the classical antidepressant, clomipramine or controls in the despair test (forced swim). The same groups were also tested for the reserpine-induced changes in open field behaviour.
Male rats of the Wistar strain (purchased from Charles River, Italy) weighing 220-240 g were used throughout all experiments. For at least 1 week prior to the experiment, the rats were housed four to a cage at a constant temperature of 21° C., and under a 12-h light/dark cycle (lights on between 08:00 and 20:00), with food and water available ad libitum.
An acute IP injection of clomipramine hydrochloride (50 mg/kg) or of the compound of Example 1 (0.2 and 0.5 mg/kg) or physiological saline was made in animals subjected to the reserpine-induced changes in the open field test (the injection was made together with the last reserpine administration, e.g. 1 h prior to the open field test).
All animals were gently manipulated by experienced facilities' keepers avoiding any environmental or physical stress. Rats subjected to drugs or physiological saline administration received an injection of a 1-mL standard volume of solution with a 23-gauge stainless steel needle of 31 mm length (for […]) or 21 mm length (for SC injections). The animals were randomly assigned to any treatment group and were used only once in the behavioural experiments.
Reserpine-induced changes in open field behaviour was studied according to the method described in Naunyn-Schmiedeberg's Arch. Pharmacol. 293: 109-114 (Vetulani et al., 1976). Reserpine (Sigma, USA) was dissolved in physiological saline and injected daily for 14 days at the dose of 0.1 mg/kg subcutaneously (SC). A period of 1 hour after the last injection of reserpine, animals were subjected to the open field test. This consisted of the measure of ambulation and rearing of the rat in a circular area divided into 17 equal sections and lighted by a centrally suspended lamp. The areas explored by the rat at least with anterior paws was recorded in 5 min test. The episodes of rearing towards the centre or the walls were also recorded in 5 min test.
All data were analysed using univariate random design analysis of variance (one-way ANOVA) and the post hoc Dunnett's test for multiple comparisons. A P-value of 0.05 or less was considered as indicative of a significant difference.

BKW male albino mice = assay: Black and white box test (Example 10); settings: 5-min period; for TB = time in white section: signed value
rats [3] = assay: Elevated plus maze (X-maze) in rats; settings: 5-min period
Source text: The X-maze is constructed from Perspex® and comprises four arms (2 open, 2 closed), each 50 cm long by 9.5 wide and 40 high (closed, arms only) connected by a centre square (9.5×9.5). The open arm has a small lip (3 mm) to assist in the retention of the rat on the arm. The apparatus was housed in a room under subdued lighting conditions.
This model is based on the observation of spontaneous activity of rodents placed in an aversive environment produced by height and often spaces. […] Anxiolytic drugs increase the exploratory activity and the number of entries into the open arms. Rats were allowed at least 1 hour to acclimatise to the environment before testing commenced. Drug treatments were given IP in a pseudo-random, blind design, 40 minutes before behavioural testing, as appropriate. Rats were placed onto the centre square of the X-maze facing a specified open arm, and its behaviour was recorded by remote video over a 5 minute experimental period. The behavioural parameters were subsequently assessed by technicians reviewing the videotape and included: entries into each arm type, time spent on each arm type, rearing, stretch attend postures and head dips.

mouse = assay: Black and white box test (Example 14); settings: for Parameter 1: Latency L (initial movement from the white to the black area), Mean / Parameter 2: Time spent in White area (TW), Mean: 5-min recording; for Parameter 3: Transitions/5 min (T), Mean: transitions between the two compartments; for Parameter 4: Total Activity: Atot, Mean: white and black compartments
Experimental: The characteristic action of anxiolytic agents is to cause a redistribution of exploratory activity and time spent in the white section.
Each mouse was placed into the centre of the white, brightly lit area bacldng the opening between the B/W compartments. Animals behaviour was recorded by a remote video camera for 5 minutes. The recordings were subsequently evaluated on the TV by two operators unaware of drug treatment. The following behavioural parameters were recorded: • a) the latency of the initial movement from the white to the black area: L (sec); • b) the time spent in the white area TW (sec); the time spent in the black area is calculated by the difference: […] (sec); • c) the number of transitions between the two compartments T (No./5 min); • d) the total activity in the white and black compartments, Atot (No./5 min); • e) the total activity in the white area throughout the time spent in the white area: • AtotW/TW (No./sec); • f) the total activity in the black area throughout the time spent in the black area: AtotB/TB (No./sec); • g) the total number of exploratory rearings: Rtot (No./5 min); • h) the total number of line crossings: Ctot (No./5 min); • i) the number of exploratory rearings in the white section RW/TW (No./sec); • j) the number of line crossings in the white section CW/TW (No./sec).
Each group was composed by 8 animals.

rats [4] = assay: Escape deficit test (learned helplessness), antidepressant activity; settings: rats treated IP for 15 days, unavoidable stress 16 h and escape test 24 h after last dosing; out of 30 trials; dose not given
Experimental: The “Escape deficit” test that derives from the classic paradigm of “learned helplessness” was used, as described by Meloni et al. in Pharmacol. Biochem. Behav. 46, 423-6 (1993) and Gambarana et al. in Behav. Pharmacol. 6, 66-73 (1995) and Neuropsychopharmacol. 21, 247-57 (1999). Exposure to an unavoidable stress induces […], which, after 24 hours, makes the rats unable to escape from a nociceptive stimulus. Rats exposed to unavoidable stress make 0-5 escapes out of 30 trials, while naïve rats realise 26-30 escapes. Classical anti-depressives prevent the occurrence of the escape deficit after chronic treatment (15 days).
Rats were treated intra-peritoneally (IP) for 15 days, and then submitted to the unavoidable stress (16 hours after the last dosing) prior to being subjected to the escape test (24 hours after the last dosing).

[5] = 1.25 mg/kg IP 40 min before test
[6] = IP 40 min before test, dose not given
[7] = 0.1 mg/kg IP 40 min before test
[8] = 0.125 mg/kg IP 40 min before test

Compound: CN(C)CCCN1c2ccccc2CCc2ccc(Cl)cc21 [Clomipramine, clomipramine hydrochloride, reference compound]
- Duration of Immobility [1]: 105.95 ± 9.13
- No. of Floor Units (ambulation) [2]: 84.6 ± 8.1
- Rearing Episodes [2]: 2.4 ± 0.2

Compound: CN1C(=O)CN=C(c2ccccc2)c2cc(Cl)ccc21 [Diazepam]
- Atot = Total exploratory activity (BKW male albino mice; [5]): +46.7
- CB/TB = crossings in the white compartment/time in white (BKW male albino mice; [5]): +0.08
- CN/TN = crossings in the black compartment/time in black (BKW male albino mice; [5]): +0.1
- Ctot = total number of crossings (BKW male albino mice; [5]): +30.7
- FI = Initial potency (BKW male albino mice; [5]): +12.7
- RB/TB = rearings in the white compartment/time in white (BKW male albino mice; [5]): +0.06
- RN/TN = rearings in the black compartment/time in black (BKW male albino mice; [5]): +0.09
- Rtot = Total number of rearings (BKW male albino mice; [5]): +21.2
- TB = time in white section (BKW male albino mice; [5]): +33.2
- % time spent in open arms (rats [3]; [6]): 25 ± 5%
- No. of entries in open arms (rats [3]; [6]): 4 ± 0.6
- Parameter 5: Total Activity in white area: AtotW/TW, Mean (mouse; 1.25 mg/kg): .723 No./sec
- Parameter 6: Total Activity in black area: AtotB/TB, Mean (mouse; 1.25 mg/kg): .723 No./sec
- Parameter 7: Rtot (total number of exploratory rearings), Mean (mouse; 1.25 mg/kg): 68.750 No./5 min
- Parameter 8: Ctot (total number of line crossings), Mean (mouse; 1.25 mg/kg): 144.375 No./5 min
- Parameter 9: RW/TW (exploratory rearings in the white section), Mean (mouse; 1.25 mg/kg): .124 No./sec
- Parameter 10: CW/TW (line crossings in the white section), Mean (mouse; 1.25 mg/kg): .599 No./sec
- Parameter 1: Latency L (initial movement from the white to the black area), Mean (mouse; 1.25 mg/kg): 13.750 s
- Parameter 2: Time spent in White area (TW), Mean (mouse; 1.25 mg/kg): 97.750 s
- Parameter 3: Transitions/5 min (T), Mean (mouse; 1.25 mg/kg): 13.375 No./5 min
- Parameter 4: Total Activity: Atot, Mean (mouse; 1.25 mg/kg): 213.125 No./5 min

Compound: ON1CCOCC1c1ccccc1 (centres unmarked) [Example P1, 3-phenylmorpholin-4-ol]
- Parameter 5: Total Activity in white area: AtotW/TW, Mean (mouse; 0.1 mg/kg): .608 No./sec
- Parameter 6: Total Activity in black area: AtotB/TB, Mean (mouse; 0.1 mg/kg): .652 No./sec
- Parameter 7: Rtot (total number of exploratory rearings), Mean (mouse; 0.1 mg/kg): 60.375 No./5 min
- Parameter 8: Ctot (total number of line crossings), Mean (mouse; 0.1 mg/kg): 137.000 No./5 min
- Parameter 9: RW/TW (exploratory rearings in the white section), Mean (mouse; 0.1 mg/kg): .155 No./sec
- Parameter 10: CW/TW (line crossings in the white section), Mean (mouse; 0.1 mg/kg): .454 No./sec
- Parameter 1: Latency L (initial movement from the white to the black area), Mean (mouse; 0.1 mg/kg): 20.125 s
- Parameter 2: Time spent in White area (TW), Mean (mouse; 0.1 mg/kg): 116.750 s
- Parameter 3: Transitions/5 min (T), Mean (mouse; 0.1 mg/kg): 19.500 No./5 min
- Parameter 4: Total Activity: Atot, Mean (mouse; 0.1 mg/kg): 197.375 No./5 min

Compound: ON1CCOCC1Cc1ccccc1 (centres unmarked) [Example P2, 3-benzylmorpholin-4-ol]
- Parameter 5: Total Activity in white area: AtotW/TW, Mean (mouse; 0.1 mg/kg): .519 No./sec
- Parameter 6: Total Activity in black area: AtotB/TB, Mean (mouse; 0.1 mg/kg): .571 No./sec
- Parameter 7: Rtot (total number of exploratory rearings), Mean (mouse; 0.1 mg/kg): 60.250 No./5 min
- Parameter 8: Ctot (total number of line crossings), Mean (mouse; 0.1 mg/kg): 108.375 No./5 min
- Parameter 9: RW/TW (exploratory rearings in the white section), Mean (mouse; 0.1 mg/kg): .099 No./sec
- Parameter 10: CW/TW (line crossings in the white section), Mean (mouse; 0.1 mg/kg): .420 No./sec
- Parameter 1: Latency L (initial movement from the white to the black area), Mean (mouse; 0.1 mg/kg): 19.625 s
- Parameter 2: Time spent in White area (TW), Mean (mouse; 0.1 mg/kg): 59.250 s
- Parameter 3: Transitions/5 min (T), Mean (mouse; 0.1 mg/kg): 10.000 No./5 min
- Parameter 4: Total Activity: Atot, Mean (mouse; 0.1 mg/kg): 168.625 No./5 min

Compound: ON1CCCCC1c1ccccc1 (centres unmarked) [Example P5, 2-phenylpiperidin-1-ol]
- Parameter 5: Total Activity in white area: AtotW/TW, Mean (mouse; 0.1 mg/kg): .571 No./sec
- Parameter 6: Total Activity in black area: AtotB/TB, Mean (mouse; 0.1 mg/kg): .708 No./sec
- Parameter 7: Rtot (total number of exploratory rearings), Mean (mouse; 0.1 mg/kg): 69.500 No./5 min
- Parameter 8: Ctot (total number of line crossings), Mean (mouse; 0.1 mg/kg): 127.500 No./5 min
- Parameter 9: RW/TW (exploratory rearings in the white section), Mean (mouse; 0.1 mg/kg): .123 No./sec
- Parameter 10: CW/TW (line crossings in the white section), Mean (mouse; 0.1 mg/kg): .448 No./sec
- Parameter 1: Latency L (initial movement from the white to the black area), Mean (mouse; 0.1 mg/kg): 20.625 s
- Parameter 2: Time spent in White area (TW), Mean (mouse; 0.1 mg/kg): 105.125 s
- Parameter 3: Transitions/5 min (T), Mean (mouse; 0.1 mg/kg): 14.750 No./5 min
- Parameter 4: Total Activity: Atot, Mean (mouse; 0.1 mg/kg): 197.000 No./5 min

Compound: ON1CCCCC1Cc1ccccc1 (centres unmarked) [Example P6, 2-benzylpiperidin-1-ol]
- Parameter 5: Total Activity in white area: AtotW/TW, Mean (mouse; 0.1 mg/kg): .705 No./sec
- Parameter 6: Total Activity in black area: AtotB/TB, Mean (mouse; 0.1 mg/kg): .835 No./sec
- Parameter 7: Rtot (total number of exploratory rearings), Mean (mouse; 0.1 mg/kg): 75.625 No./5 min
- Parameter 8: Ctot (total number of line crossings), Mean (mouse; 0.1 mg/kg): 153.750 No./5 min
- Parameter 9: RW/TW (exploratory rearings in the white section), Mean (mouse; 0.1 mg/kg): .190 No./sec
- Parameter 10: CW/TW (line crossings in the white section), Mean (mouse; 0.1 mg/kg): .515 No./sec
- Parameter 1: Latency L (initial movement from the white to the black area), Mean (mouse; 0.1 mg/kg): 14.500 s
- Parameter 2: Time spent in White area (TW), Mean (mouse; 0.1 mg/kg): 152.125 s
- Parameter 3: Transitions/5 min (T), Mean (mouse; 0.1 mg/kg): 24.250 No./5 min
- Parameter 4: Total Activity: Atot, Mean (mouse; 0.1 mg/kg): 229.375 No./5 min

Compound: cis-1,2,3,4,5,6a,7,8,9,10a,10b-dodeca-1,4-oxazino-[3′,4′:2,3]benzo[d]isoxazol-4-one [Comparative Compound A]
- Atot = Total exploratory activity (BKW male albino mice; [7]): +53.7
- CB/TB = crossings in the white compartment/time in white (BKW male albino mice; [7]): +0.01
- CN/TN = crossings in the black compartment/time in black (BKW male albino mice; [7]): +0.08
- Ctot = total number of crossings (BKW male albino mice; [7]): +19.1
- FI = Initial potency (BKW male albino mice; [7]): +8.1
- PT = Total passages through the partition (BKW male albino mice; [7]): +4.1
- RB/TB = rearings in the white compartment/time in white (BKW male albino mice; [7]): +0.04
- RN/TN = rearings in the black compartment/time in black (BKW male albino mice; [7]): +0.13
- Rtot = Total number of rearings (BKW male albino mice; [7]): +23.9
- TB = time in white section (BKW male albino mice; [7]): +52.1
- % time spent in open arms (rats [3]; [8]): 21 ± 11%
- No. of entries in open arms (rats [3]; [8]): 3 ± 1.1
- No. of escapes (rats [4]): 3.5 ± 0.9
